Where two headings read alike, the source gives them in different places.
Experiments:
Experiment in all cases: Greenhouse test, pre-emergence treatment
BRADC = type: in vivo, Brachiaria decumbens; settings: Urochloa decumbens, pre-emergence, 480 h
How it was run: (§1)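 Seeds were sown in loamy sand with approximately 3.0% humus, then sprayed at once with actives suspended or emulsified in water. Pots were watered, hooded until rooting, held at 10-25° C. or 20-35° C. by species for 2 to 4 weeks, and scored 0 (no damage) to 100 (no emergence/complete destruction).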

PHACA = type: in vivo, Phalaris canariensis; settings: Phalaris canariensis, pre-emergence, 480 h
How it was run: as §1

KCHSC = type: in vivo, Kochia scoparia; settings: Bassia scoparia, pre-emergence, 480 h
How it was run: as §1

ALOMY = type: in vivo, Alopecurus myosuroides; settings: Alopecurus myosuroides, pre-emergence, 480 h
How it was run: as §1

GALAP = type: in vivo, Galium aparine; settings: Galium aparine, pre-emergence, 480 h, 40 g ai/ha, 20 DAT; read-out: observed % activity
How it was run: as §1

POLCO = type: in vivo, Polygonum convolvulus; settings: Fallopia convolvulus, pre-emergence, 480 h, 20 g ai/ha, 20 DAT; read-out: observed % activity
How it was run: as §1

ECHCG = type: in vivo, Echinocloa crus-galli; settings: Echinochloa crus-galli, 480 h, read-out: observed % activity 20 DAT
How it was run: as §1

LOLMU = type: in vivo, Lolium multiflorum; settings: Lolium multiflorum, pre-emergence, 480 h, pre-emergence, read-out: observed % activity 20 DAT
How it was run: as §1

VIOAR = type: in vivo, Viola arvensis; settings: use rate 30 g ai/ha, 20 DAT
Source text: The culture containers used were plastic flowerpots containing loamy sand with approximately 3.0% of humus as the substrate. The seeds of the test plants were sown separately for each species.
For the pre-emergence treatment, the active ingredients, which had been suspended or emulsified in water, were applied directly after sowing by means of finely distributing nozzles. The containers were irrigated gently to promote germination and growth and subsequently covered with transparent plastic hoods until the plants had rooted. This cover caused uniform germination of the test plants, unless this had been impaired by the active ingredients.
Depending on the species, the plants were kept at 10-25° C. or 20-35° C., respectively.
The test period extended over 2 to 4 weeks. During this time, the plants were tended, and their response to the individual treatments was evaluated.
Evaluation was carried out using a scale from 0 to 100. 100 means no emergence of the plants, or complete destruction of at least the aerial moieties, and 0 means no damage, or normal course of growth. A moderate herbicidal activity is given at values of at least 60, a good herbicidal activity is given at values of at least 70, and a very good herbicidal activity is given at values of at least 85.
The respective stated components a and b, and if appropriate, c were formulated as a 10% by weight strength emulsion concentrate and, with addition of the amount of solvent system, introduced into the spray liquor used for applying the active compound.
In the examples, the solvent used was water.
In the examples below, using the method of S. R. Colby (1967) “Calculating synergistic and antagonistic responses of herbicide combinations”, Weeds 15, p. 22ff., the value E, which is expected if the activity of the individual active compounds is only additive, was calculated. E=X+Y−(X·Y/100) where • X=percent activity using active compound a at an application rate A; • Y=percent activity using active compound b at an application rate B; • E=expected activity (in %) by a+b at application rates A+B.
If the value found experimentally is higher than the value E calculated according to Colby, a synergistic effect is present.

SETFA = type: in vivo, Setaria faberi; settings: Setaria faberi, 480 h, use rate 30 g ai/ha, read-out: observed % activity 20 DAT
How it was run: as §1

AVEFA = type: in vivo, Avena fatua; settings: pre-emergence
How it was run: as §1

[1] = 40 g ai/ha, 20 DAT, read-out: observed % activity
[2] = 10 g ai/ha, read-out: observed % activity 20 DAT
[3] = 20 g ai/ha, read-out: observed % activity 20 DAT
[4] = 30 g ai/ha, read-out: observed % activity 20 DAT
[5] = 40 g ai/ha, read-out: observed % activity 20 DAT
[6] = 10 g ai/ha, 20 DAT, read-out: observed % activity
[7] = 20 g ai/ha, 20 DAT, read-out: observed % activity
[8] = use rate 30 g ai/ha, read-out: observed % activity 20 DAT
[9] = use rate 60 g ai/ha, 20 DAT, read-out: observed % activity 20 DAT
[10] = use rate 60 g ai/ha, read-out: observed % activity 20 DAT

## CC(C)N(C(=O)COc1nnc(C(F)(F)F)s1)c1ccc(F)cc1 [Flufenacet, flufenacet]
BRADC; [1]
  inhibition at 40 g/ha: 65%
BRADC; [2]
  pest or weed control at 10 g/ha: 45%
BRADC; [3]
  pest or weed control at 20 g/ha: 40%
BRADC; [4]
  pest or weed control at 30 g/ha: 0%
BRADC; [5]
  pest or weed control at 40 g/ha: 25%
BRADC; 60 g ai/ha, read-out: observed % activity 20 DAT
  pest or weed control at 60 g/ha: 98%
PHACA; [6]
  inhibition at 10 g/ha: 0%
PHACA; [7]
  inhibition at 20 g/ha: 33%
PHACA; [2]
  pest or weed control at 10 g/ha: 10%
PHACA; [3]
  pest or weed control at 20 g/ha: 65%
PHACA; [4]
  pest or weed control at 30 g/ha: 80%
PHACA; [5]
  pest or weed control at 40 g/ha: 75%
PHACA; [8]
  inhibition at 30 g/ha: 65%
PHACA; [9]
  pest or weed control at 60 g/ha: 98%
PHACA; [10]
  inhibition at 60 g/ha: 98%
KCHSC; [6]
  inhibition at 10 g/ha: 0%
KCHSC; [7]
  inhibition at 20 g/ha: 0%
KCHSC; [1]
  inhibition at 40 g/ha: 0%
KCHSC; [8]
  inhibition at 30 g/ha: 0%
KCHSC; [10]
  inhibition at 60 g/ha: 0%
ALOMY; [6]
  inhibition at 10 g/ha: 28%
ALOMY; [2]
  pest or weed control at 10 g/ha: 25%
ALOMY; [3]
  pest or weed control at 20 g/ha: 70%
ALOMY; [5]
  pest or weed control at 40 g/ha: 75%
ALOMY; [8]
  inhibition at 30 g/ha: 75%
ALOMY; [9]
  pest or weed control at 60 g/ha: 80%
ALOMY; [10]
  inhibition at 60 g/ha: 80%
GALAP
  inhibition at 40 g/ha: 40%
POLCO
  inhibition at 20 g/ha: 0%
ECHCG; 30 g ai/ha
  pest or weed control at 30 g/ha: 75%
ECHCG; 60 g ai/ha
  pest or weed control at 60 g/ha: 95%
ECHCG; use rate 30 g ai/ha, 20 DAT
  pest or weed control at 30 g/ha: 85%
ECHCG; use rate 30 g ai/ha
  inhibition at 30 g/ha: 85%
LOLMU; 10 g ai/ha
  pest or weed control at 10 g/ha: 0%
LOLMU; 20 g ai/ha
  pest or weed control at 20 g/ha: 20%
LOLMU; 30 g ai/ha
  pest or weed control at 30 g/ha: 30%
LOLMU; 40 g ai/ha
  pest or weed control at 40 g/ha: 55%
LOLMU; use rate 30 g ai/ha, 20 DAT
  pest or weed control at 30 g/ha: 0%
LOLMU; use rate 30 g ai/ha
  inhibition at 30 g/ha: 20%
LOLMU; use rate 60 g ai/ha, 20 DAT
  pest or weed control at 60 g/ha: 30%
LOLMU; use rate 60 g ai/ha
  inhibition at 60 g/ha: 30%
VIOAR
  observed % activity 20 DAT: 0%
SETFA
  inhibition at 30 g/ha: 98%
AVEFA; Avena fatua, 480 h, 40 g ai/ha, 20 DAT, read-out: observed % activity
  inhibition at 40 g/ha: 10%
AVEFA; 30 g ai/ha
  observed % activity 20 DAT: 0%
AVEFA; 40 g ai/ha
  observed % activity 20 DAT: 55%

— patent publication US9999222B2, “Herbicidal combination comprising azines” (BASF SE, priority 2014, dated 2018)
